In paper PMC6818106, “Synthesis of thiazolidin-4-ones and thiazinan-4-ones from 1-(2-aminoethyl)pyrrolidine as acetylcholinesterase inhibitors” (Journal of Enzyme Inhibition and Medicinal Chemistry, 2019):

Experiments:
AChE [1] = target: T1, AChE (Rattus norvegicus, UniProt P37136); assay: In vitro AChE activity (Ellman method) in cerebral cortex homogenate; type: biochemical; conditions: for IC50: rat cerebral cortex homogenate, calculated with GraphPad Prism 5, read-out: IC50 of AChE inhibition, Cortex; for concentration from which AChE activity was inhibited, cerebral cortex: vs control group (water and methanol), p < .05, tested 0.1-250 μM
T1 construct: the use of crude homogenised from rat’s brain structures, as used in the present work; from tissue; host or cells: Wistar rat cerebral cortex, homogenate supernatant
Experimental: (§1) In vitro was evaluated the potential inhibition of thiazolidin-4-ones and thiazinan-4-ones against AChE activity enzyme in hippocampus and cerebral cortex of Wistar rats (60 days, 250–300 g), since it is well described that these two structures in the brain play an important role in memory. All procedures involving the animals were approved by the Committee of Ethics in Animal Experimentation of UFPel (CEEA 9219). The animals were submitted to euthanasia and the brain was removed. Subsequently, the hippocampus and cerebral cortex were separated and homogenised in buffer Tris HCl 10 mM (pH 7.4). The homogenates were centrifuged at 1800 rpm for 10 min and the supernatant was used for in vitro analyses of the potential inhibitory effect of thiazolidin-4-one and thiazinan-4-ones on AChE activity.
(§2) The compounds were solubilised in methanol and prepared in different concentrations (0.1, 0.5, 1, 5, 10, 25, 50, 100 and 250 μM). […] The thiocholine, in turn, reacts with DTNB to form a chromophore, 5-thio-2-nitrobenzoic, which is quantified spectrophotometrically at 412 nm. The enzymatic activity was expressed in μmols of AcSCh/h/mg protein. Proteins were determined by the method of Bradford[29] using the Coomassie Blue reagent. Bovine albumin was used as standard.

AChE [2] = target: T1, AChE; assay: In vitro AChE activity (Ellman method) in hippocampus homogenate; type: biochemical; conditions: for IC50: rat hippocampus homogenate, calculated with GraphPad Prism 5, read-out: IC50 of AChE inhibition, Hippocampus; for concentration from which AChE activity was inhibited, hippocampus: vs control group (water and methanol), p < .05, tested 0.1-250 μM
Experimental: as §1, §2

cortical astrocytes = assay: Cytotoxicity in cortical astrocyte primary culture (MTT cell viability); type: cell-based; conditions: 100 μM, 48 h and 72 h; p > .05
Experimental: In the evaluation of the cytotoxicity of the thiazolidin-4-ones and thiazinan-4-ones in astrocytes, Wistar rats (1–2 days) were used to obtain cortical astrocytes, which were cultured in 96-well plates (3x10^4 per well) and maintained with Dulbecco’s modified Eagle’s medium (DMEM) supplemented with 10% Bovine Foetal Serum (FBS)[30]. Cells were maintained under standard conditions (5% CO2, 37 °C and humidified atmosphere) for 15 days, receiving periodic exchange of culture medium until treatments were received. After time and maturation, the astrocytes were treated with the compounds at the concentration of 100 μM. Cells were exposed to this concentration for 48 h and 72 h. After treatment, cell viability was analysed by the test of 3-(4,5-dimethylthiazol-2yl)-2,5-diphenyltetrazolium bromide (MTT). This method consists of measuring the number of cells with the metabolically active mitochondria, based on the reduction of the tetrazolium salt to the formazan crystals. The absorbance was determined on a microplate reader at 492 nm. The absorbance is linearly proportional to the number of cells with active mitochondria, indicating how many viable cells remained at the end of the treatment.

T1 sequence (P37136 32-614): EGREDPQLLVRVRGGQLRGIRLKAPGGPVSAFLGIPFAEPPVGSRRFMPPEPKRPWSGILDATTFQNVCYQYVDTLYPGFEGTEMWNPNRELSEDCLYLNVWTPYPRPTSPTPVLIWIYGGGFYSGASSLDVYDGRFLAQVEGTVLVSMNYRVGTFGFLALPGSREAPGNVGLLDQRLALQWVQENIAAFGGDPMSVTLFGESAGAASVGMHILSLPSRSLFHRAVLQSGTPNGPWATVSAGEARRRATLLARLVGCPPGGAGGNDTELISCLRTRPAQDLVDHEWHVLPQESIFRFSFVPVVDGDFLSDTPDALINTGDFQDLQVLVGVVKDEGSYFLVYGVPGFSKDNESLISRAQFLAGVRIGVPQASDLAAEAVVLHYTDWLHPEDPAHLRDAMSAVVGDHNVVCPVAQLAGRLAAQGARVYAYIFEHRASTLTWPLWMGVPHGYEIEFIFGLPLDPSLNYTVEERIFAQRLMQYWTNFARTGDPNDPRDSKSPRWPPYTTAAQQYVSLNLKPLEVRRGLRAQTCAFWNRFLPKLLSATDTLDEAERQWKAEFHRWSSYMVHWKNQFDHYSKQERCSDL

Compound | IC50 (AChE [1]) | concentration from which AChE activity was inhibited, cerebral cortex (AChE [1]) | IC50 (AChE [2]) | concentration from which AChE activity was inhibited, hippocampus (AChE [2]) | cell viability of astrocyte primary culture (MTT) (cortical astrocytes) | AChE inhibition activity (qualitative) (AChE [2]; disubstituted aryl, tissue not stated in the sentence (follows hippocampus results))
2-(2-methoxyphenyl)-3-(2-(pyrrolidin-1-yl)ethyl)-1,3-thiazinan-4-one [6l] | > 250 µM | ≥ 100 µM | 84.9 µM | ≥ 100 µM | – | –
O=C1CSC(c2ccccc2)N1CCN1CCCC1 (centres unmarked) [5a, 2-phenyl-3-(2-(pyrrolidin-1-yl)ethyl)thiazolidin-4-one] | > 250 µM | – | 30.9 µM | – | – | –
O=C1CSC(c2ccc(Cl)cc2)N1CCN1CCCC1 (centres unmarked) [5g, 2-(4-chlorophenyl)-3-(2-(pyrrolidin-1-yl)ethyl)thiazolidin-4-one] | > 250 µM | – | > 250 µM | – | – | –
O=C1CSC(c2ccccc2[N+](=O)[O-])N1CCN1CCCC1 (centres unmarked) [5h, 2-(2-nitrophenyl)-3-(2-(pyrrolidin-1-yl)ethyl)thiazolidin-4-one] | > 250 µM | – | 105 µM | – | – | –
O=C1CSC(c2cccc([N+](=O)[O-])c2)N1CCN1CCCC1 (centres unmarked) [5i, 2-(3-nitrophenyl)-3-(2-(pyrrolidin-1-yl)ethyl)thiazolidin-4-one] | 10.2 µM | ≥ 10 µM | 81.6 µM | ≥ 10 µM | – | –
O=C1CSC(c2ccc([N+](=O)[O-])cc2)N1CCN1CCCC1 (centres unmarked) [5j, 2-(4-nitrophenyl)-3-(2-(pyrrolidin-1-yl)ethyl)thiazolidin-4-one] | 28.1 µM | ≥ 1 µM | 8.68 µM | ≥ 1 µM | did not change de cell viability | –
Cc1ccc(C2SCC(=O)N2CCN2CCCC2)cc1 (centres unmarked) [5k, 3-(2-(pyrrolidin-1-yl)ethyl)-2-p-tolylthiazolidin-4-one] | > 250 µM | – | > 250 µM | – | – | –
COc1ccc(C2SCC(=O)N2CCN2CCCC2)cc1 (centres unmarked) [5n, 2-(4-methoxyphenyl)-3-(2-(pyrrolidin-1-yl)ethyl)thiazolidin-4-one] | > 250 µM | – | > 250 µM | – | – | –
O=C1CSC(c2cccc(O)c2)N1CCN1CCCC1 (centres unmarked) [5o, 2-(3-hydroxyphenyl)-3-(2-(pyrrolidin-1-yl)ethyl)thiazolidin-4-one] | 27.6 µM | – | 30.6 µM | – | – | –
O=C1CCSC(c2ccccc2)N1CCN1CCCC1 (centres unmarked) [6a, 2-phenyl-3-(2-(pyrrolidin-1-yl)ethyl)-1,3-thiazinan-4-one] | 7.4 µM | ≥ 5 µM | 5.2 µM | ≥ 1 µM | did not change de cell viability | –
O=C1CCSC(c2ccc(Cl)cc2)N1CCN1CCCC1 (centres unmarked) [6g, 2-(4-chlorophenyl)-3-(2-(pyrrolidin-1-yl)ethyl)-1,3-thiazinan-4-one] | 57.2 µM | – | 50.5 µM | – | – | –
O=C1CCSC(c2ccccc2[N+](=O)[O-])N1CCN1CCCC1 (centres unmarked) [6h, 2-(2-nitrophenyl)-3-(2-(pyrrolidin-1-yl)ethyl)-1,3-thiazinan-4-one] | 11 µM | ≥ 1 µM | 92.8 µM | 5 µM | did not change de cell viability | –
O=C1CCSC(c2cccc([N+](=O)[O-])c2)N1CCN1CCCC1 (centres unmarked) [6i, 2-(3-nitrophenyl)-3-(2-(pyrrolidin-1-yl)ethyl)-1,3-thiazinan-4-one] | 50.6 µM | ≥ 50 µM | 29.4 µM | ≥ 50 µM | – | –
O=C1CCSC(c2ccc([N+](=O)[O-])cc2)N1CCN1CCCC1 (centres unmarked) [6j, 2-(4-nitrophenyl)-3-(2-(pyrrolidin-1-yl)ethyl)-1,3-thiazinan-4-one] | 40.1 µM | ≥ 10 µM | 9.32 µM | ≥ 1 µM | did not change de cell viability | –
Cc1ccc(C2SCCC(=O)N2CCN2CCCC2)cc1 (centres unmarked) [6k, 3-(2-(pyrrolidin-1-yl)ethyl)-2-(p-tolyl)-1,3-thiazinan-4-one] | 6.83 µM | ≥ 5 µM | 4.46 µM | ≥ 1 µM | did not change de cell viability | –
COc1cccc(C2SCCC(=O)N2CCN2CCCC2)c1 (centres unmarked) [6m, 2-(3-methoxyphenyl)-3-(2-(pyrrolidin-1-yl)ethyl)-1,3-thiazinan-4-one] | 24 µM | ≥ 25 µM | 90.3 µM | – | – | –
COc1ccc(C2SCCC(=O)N2CCN2CCCC2)cc1 (centres unmarked) [6n, 2-(4-methoxyphenyl)-3-(2-(pyrrolidin-1-yl)ethyl)-1,3-thiazinan-4-one] | 22.2 µM | ≥ 5 µM | 17 µM | – | did not change de cell viability | –
O=C1CCSC(c2cccc(O)c2)N1CCN1CCCC1 (centres unmarked) [6o, 2-(3-hydroxyphenyl)-3-(2-(pyrrolidin-1-yl)ethyl)-1,3-thiazinan-4-one] | 25.7 µM | ≥ 25 µM | 69.6 µM | – | – | –
COc1cccc(C2SCCC(=O)N2CCN2CCCC2)c1OC (centres unmarked) [6p, 2-(2,3-dimethoxyphenyl)-3-(2-(pyrrolidin-1-yl)ethyl)-1,3-thiazinan-4-one] | – | – | – | – | – | decrease in activity
